# Assays:
# [1] = tested on: NCI-N87 wt cells; assay: MTS in vitro cytotoxicity, 144 h continuous exposure; assay type: cell-based, human; details: NCI-N87 wt, 144 h continuous exposure, mean; read-out: IC50
# Experimental: (§12) To generate a resistant population to either ADCT-502 or SG3199, human gastric cancer NCI-N87 cells (expressing HER2) were incubated with an approximate IC50 dose of the drug for 144 hours. The cells were then washed and returned to fresh medium until normal cell growth was recovered. This process was repeated until a measurable and stable loss in cytotoxic efficacy was established using the MTS assay.
# (§13) To measure the in vitro cytotoxicity with the MTS assay, cells were incubated with a 10-fold dilution range of ADCT-502 or SG3199, and incubated with continuous exposure for 144 hours (at least three cell doubling times under normal cell culture conditions). After incubation the CellTiter 960 AQueous One Solution Cell Proliferation Assay (MTS) was used to measure growth inhibition, by adding 20 μl reagent to the cells and incubating for 3-4 hours, then reading the absorbance at 492 nm. Mean % growth of the ADC or PBD treated cells was calculated relative to an untreated control.
# (§14) To measure the cross-resistance of the NCI-N87 ADCR cells to the SG3199 PBD warhead, and the PBDR cells to ADCT-502, the in vitro cytotoxicity assay was carried out as described above, treating the cells with the opposite drug molecule to the one with which they were generated.
# [2] = tested on: human tumor cell lines expressing MDR1; details: cited from earlier work
# [3] = tested on: NCI-N87 ADCr cells; assay: DNA interstrand cross-linking, comet assay; assay type: cell-based, human; details: 1 nM ADCT-502 or 1.7 nM SG3199 for 2 hours, then 24 hours
# Experimental: (§1) The formation of inter-strand cross-links (ICLs) by either ADCT-502 or SG3199 was measured using the modification of the single cell gel electrophoresis (comet) assay. Cells were treated with 1 nM ADCT-502 or 1.7 nM SG3199 for 2 hours, then washed and incubated for 24 hours under normal cell culture conditions. All cells were irradiated with 18 Gy (5 Gy/min for 3.6 min). ICL formation was quantitated by measuring Olive tail moment (OTM) using the Komet 4 software, and the percentage reduction in OTM compared to an untreated irradiated control.
# (§2) The results are shown in FIG. 20 for the ADCR line and FIG. 21 for the PBDR line.
# [4] = tested on: NCI-N87 wt cells; assay: DNA interstrand cross-linking, comet assay; assay type: cell-based, human; details: 1 nM ADCT-502 or 1.7 nM SG3199 for 2 hours, then 24 hours
# Experimental: as §1, §2
# [5] = tested on: NCI-N87 PBDr cells; assay: DNA interstrand cross-linking, comet assay; assay type: cell-based, human; details: 1 nM ADCT-502 or 1.7 nM SG3199 for 2 hours, then 24 hours
# Experimental: as §1, §2
# [6] = tested on: Karpas PBDr cells (SG3199 acquired resistant Karpas-299); assay: MTS in vitro cytotoxicity, 96 h continuous exposure
# Experimental: (§3) To generate a resistant population to either ADCT-301 or SG3199, human anaplastic large cell lymphoma Karpas-299 cells (expressing CD25) were incubated with an approximate IC50 dose of the drug for 96 hours. The cells were then washed and returned to fresh medium until normal cell growth was recovered. This process was repeated until a measurable and stable loss in cytotoxic efficacy was established using the MTS assay.
# (§4) To measure the in vitro cytotoxicity with the MTS assay, cells were incubated with a 10-fold dilution range of ADCT-301 or SG3199, and incubated with continuous exposure for 96 hours (at least three cell doubling times under normal cell culture conditions). After incubation the […] AQueous One Solution Cell Proliferation Assay (MTS) was used to measure growth inhibition, by adding 20 μl reagent to the cells and incubating for 3-4 hours, then reading the absorbance at 492 nm. Mean % growth of the ADC or PBD treated cells was calculated relative to an untreated control.
# (§5) To measure the cross-resistance of the Karpas ADCR cells to the SG3199 PBD warhead, and the PBDR cells to ADCT-301, the in vitro cytotoxicity assay was carried out as described above, treating the cells with the opposite drug molecule to the one with which they were generated.
# (§6) To measure the cross-resistance of the Karpas ADCR and PBDR cells to the PBD dimer warhead SG2000, the in vitro cytotoxicity (MTS) assay was carried out as previously described in Example 2.
# [7] = tested on: Karpas ADCr cells (ADCT-301 acquired resistant Karpas-299); assay: as above
# Experimental: as §3, §4, §5, §6
# [8] = tested on: Karpas PBDr cells; assay: DNA interstrand cross-linking, comet assay; assay type: cell-based, human; details: 130 μM ADCT-301 or 280 μM SG3199 (figure legends: pM) for 2 hours, then 24 hours
# Experimental: (§7) The formation of inter-strand cross-links (ICLs) by either ADCT-301 or SG3199 was measured using a modification of the single cell gel electrophoresis (comet) assay (Spanswick V J, Hartley J M, Hartley J A. Measurement of DNA interstrand crosslinking in individual cells using the Single Cell Gel Electrophoresis (Comet) assay. Methods Mol Biol. 613, 267-82 (2010)). Cells were treated with […] ADCT-301 or […] SG3199 for 2 hours, then washed and incubated for 24 hours under normal cell culture conditions. All cells were irradiated with 18 Gy (5 Gy/min for 3.6 min). Comet slides were reviewed under a 20× objective on an epifluorescence microscope equipped with: Hg arc lamp; 580 nm dichroic mirror; and 535 nm excitation and 645 nm emission filters suitable for visualising of propidium iodide staining with a minimum of 50 Comet images acquired per treatment condition. The Olive Tail Moment (OTM) was determined as the product of the tail length and the fraction of total DNA in the tail as recorded by Komet 6 software (Andor Technology, Belfast, UK) and the percentage reduction in OTM calculated according to the formula:
# (§8) % decrease in tail moment=[1−(TMdi−TMcu)/(TMci−TMcu)]*100 • [TMdi=Tail Moment drug irradiated; TMcu=TM control un-irradiated; TMci=TM control irradiated]
# (§9) The results are shown in FIG. 18 for the ADCR line and FIG. 19 for the PBDR line.
# [9] = tested on: Karpas ADCr cells; assay: DNA interstrand cross-linking, comet assay; assay type: cell-based, human; details: 130 μM ADCT-301 or 280 μM SG3199 (figure legends: pM) for 2 hours, then 24 hours
# Experimental: as §7, §8, §9
# [10] = tested on: Karpas PBDr cells; assay: Single dose 2-hour exposure cytotoxicity (MTS); assay type: cell-based, human; details: 130 μM ADCT-301 (legend: pM) or 280 pM SG3199 for 2 hours, then 96 hours
# Experimental: (§10) To investigate growth inhibition under the same conditions under which DNA ICL formation was measured, Karpas-ADCR cells were treated with 130 pM ADCT-301, and Karpas-PBDR cells treated with 280 pM SG3199 for 2 hours, then washed and incubated for 96 hours under normal cell culture conditions. The MTS assay and calculation of % growth compared to the untreated control was carried out as previously described.
# (§11) To investigate whether the cross-resistance in ICL formation observed in the Karpas resistant cell lines also correlates with growth inhibition at this dose, ADCR cells were treated with […] SG3199, and PBDR cells treated with […] ADCT-301 for 2 hours, then washed and incubated for 96 hours under normal cell culture conditions. The MTS assay and calculation of % growth compared to the untreated control was carried out as previously described. The results are shown in FIG. 22 for the ADCR line and FIG. 23 for the PBDR line.
# [11] = tested on: Karpas ADCr cells; assay: Single dose 2-hour exposure cytotoxicity (MTS); assay type: cell-based, human; details: 130 pM ADCT-301 or 280 μM SG3199 (legend: pM) for 2 hours, then 96 hours
# Experimental: as §10, §11
# [12] = tested on: NCI-N87 ADCr cells (ADCT-502 acquired resistant); assay: MTS in vitro cytotoxicity, 144 h continuous exposure; assay type: cell-based, human
# Experimental: as §12, §13, §14
# [13] = tested on: Karpas-299 wt cells; assay: DNA interstrand cross-linking, single cell gel electrophoresis (comet) assay; assay type: cell-based, human; details: 130 μM ADCT-301 or 280 μM SG3199 (figure legends: pM) for 2 hours, then 24 hours
# Experimental: as §7, §8, §9
structure (smiles),measurement,setting,value
COc1cc2c(cc1OCCCCCOc1cc3c(cc1OC)C(=O)N1C=C(C)C[C@H]1C=N3)N=C[C@@H]1CC(C)=CN1C2=O [SG3199],IC50,[1],0.0159 nM
same,susceptibility to multidrug resistance mechanisms,[2],susceptible to multidrug resistance mechanisms
same,% red. OTM,[3],24%
same,% red. OTM,[4],51.0%
same,% red. OTM,[5],30.7%
same,fold resistance compared to wildtype,[6]; Karpas PBDr vs Karpas wt IC50,2.9 fold
same,IC50,"[6]; read-out: IC50 pM, Karpas PBDr, 96 h continuous exposure, mean",205 pM
same,fold resistance compared to wildtype,[7]; Karpas ADCr vs Karpas wt IC50,4.4 fold
same,IC50,"[7]; read-out: IC50 pM, Karpas ADCr, 96 h continuous exposure, mean",306 pM
same,% red. OTM,[8],25.7%
same,% red. OTM,[9],7.2%
same,2 hr mean % growth,[10],78.5%
same,2 hr mean % growth,[11],86.3%
same,fold resistance compared to wildtype,[12]; NCI-N87 ADCr vs NCI-N87 wt IC50,3.8 fold
same,IC50,"[12]; NCI-N87 ADCr, 144 h continuous exposure, mean, read-out: IC50",0.0604 nM
same,% red. OTM (mean % reduction in Olive Tail Moment),[13],55.5%

# — patent US20220347309A1, “PYRROLOBENZODIAZEPINE RESISTANCE” (ADC THERAPEUTICS SA, priority 2018, published 2022)
